Data taken from publication PMC9781003, “Two Antenna-Enriched Odorant Binding Proteins in Dioryctria abietella Tuned to General Odorants and Insecticides” (Insects, 2022).
Where “and” joins values, the source holds several entries; their conditions need not be identical. Equal entries are not always repeated. Where two headings read alike, the source gives them in different places.

What was measured:
[1] = system: DabiOBP14; assay type: binding, Dioryctria abietella; settings: for Ki: competitive displacement of 1-NPN, three replicates, mean ± SE, read-out: OBP14 Ki (dissociation constant)
Procedure: In the binding assays, we selected 100 compounds derived from host/non-host plants and man-made insecticides widely used for the control of lepidopteran pests, representing 88 general odorants (21 esters, 21 alcohols, 14 aldehydes, 13 alkenes, seven ketones, 11 alkanes and one acid) and 12 insecticides. These compounds and N-phenyl-1-naphthylamine (1-NPN) were purchased from Aladdin and Sigma-Aldrich, with the highest available purity. They were first diluted into 100 mM, using methanol (HPLC purity grade, ≥99.9%) as a stock solution. The concentrations of the work solution for each ligand and 1-NPN were set at 1 mM.
In order to measure the binding properties of the DabiOBPs to the 100 ligands, competitive binding assays were performed on a RF5301PC fluorescence spectrophotometer (Shimadzu, Japan). The concentrations of DabiOBPs and the fluorescent probe 1-NPN were set at 2 μM. The binding of DabiOBPs to 1-NPN in 20 mM Tris-HCl buffer (pH 7.4) was measured by adding final concentrations of 2–16 μM 1-NPN. Accordingly, binding constants (K1-NPN) of the DabiOBPs and 1-NPN were calculated using GraphPad Prism 7 (GraphPad Software Inc., San Diego, CA). The binding of the DabiOBPs to various ligands was conducted by adding different concentrations of ligands (2, 4, 6, 8, 12, 16 and 20 μM) into the DabiOBP5/1-NPN (each 2 μM) or DabiOBP14/1-NPN (each 2 μM) mixtures. For the ligands replacing over a half of 1-NPN fluorescence (50%) at 20 μM, three replicates were performed. The excitation wavelength was set at 337 nm and the emission peaks were recorded at around 400 nm. The dissociation constants (Ki) of the tested ligands to DabiOBPs were computed, using the equation: Ki = [IC50]/(1 + [1-NPN]/K1-NPN), where [1-NPN] was the free concentration of 1-NPN and IC50 was the concentration of ligands replacing 50% of 1-NPN fluorescence.

[2] = biological target: T1, DabiOBP5 (Dioryctria abietella, UniProt A0A8E6HS34); test: Competitive fluorescence binding assay with 1-NPN probe, recombinant DabiOBP5
T1 sequence (A0A8E6HS34 19-139): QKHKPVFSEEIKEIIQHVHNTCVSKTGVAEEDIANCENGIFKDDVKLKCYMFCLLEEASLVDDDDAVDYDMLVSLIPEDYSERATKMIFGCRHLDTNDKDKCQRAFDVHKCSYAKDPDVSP
Text: In the binding assays, we selected 100 compounds derived from host/non-host plants and man-made insecticides widely used for the control of lepidopteran pests, representing 88 general odorants (21 esters, 21 alcohols, 14 aldehydes, 13 alkenes, seven ketones, 11 alkanes and one acid) and 12 insecticides. These compounds and N-phenyl-1-naphthylamine (1-NPN) were purchased from Aladdin and Sigma-Aldrich, with the highest available purity. […] The concentrations of the work solution for each ligand and 1-NPN were set at 1 mM.
In order to measure the binding properties of the DabiOBPs to the 100 ligands, competitive binding assays were performed on a RF5301PC fluorescence spectrophotometer (Shimadzu, Japan). The concentrations of DabiOBPs and the fluorescent probe 1-NPN were set at 2 μM. […] Accordingly, binding constants (K1-NPN) of the DabiOBPs and 1-NPN were calculated using GraphPad Prism 7 (GraphPad Software Inc., San Diego, CA). […] For the ligands replacing over a half of 1-NPN fluorescence (50%) at 20 μM, three replicates were performed. The excitation wavelength was set at 337 nm and the emission peaks were recorded at around 400 nm.

[3] = ligand at 20 μM, DabiOBP14/1-NPN each 2 μM, Tris-HCl pH 7.4, NB = no binding
[4] = ligand at 20 μM, DabiOBP5/1-NPN each 2 μM, Tris-HCl pH 7.4, NB = no binding
[5] = ligand at 20 μM, DabiOBP5/1-NPN each 2 μM, Tris-HCl pH 7.4, NB = no binding, read-out: OBP5 F.D. (%) fluorescence displacement percent

In the case of `O=C(NC(=O)c1ccccc1Cl)Nc1ccc(Cl)cc1` [Chlorbenzuron], the “OBP14 F.D. (%) fluorescence displacement percent” value [1, 3] is reported as 47.43% and the “OBP5 F.D. (%) fluorescence displacement percent” value [2, 4] is reported as 39.11%.
`CCOP(=S)(OCC)O/N=C(\C#N)c1ccccc1` [Phoxim] was tested, and the Ki ([1]; listed as phoxim) was < 13000 nM, the Ki [1] was 2380 ± 280 nM and the “OBP14 F.D. (%) fluorescence displacement percent” value [1, 3] was 89.62%. For the same compound, the inhibition at 20 µM ([2]; pH 7.4, read-out: OBP5 F.D. (%) fluorescence displacement percent) was 82% and the Ki ([2]; read-out: OBP5 Ki (dissociation constant), competitive displacement of 1-NPN, three replicates, mean ± SE) was < 13000 nM and 2890 nM.
For `CCCCCC(C)=O` [2-Heptanone], the “OBP14 F.D. (%) fluorescence displacement percent” value [1, 3] was 33.53% and the inhibition at 20 µM [2, 5] was 36.5%.
In the case of `CC1=CC[C@@H](C(C)(C)O)CC1` [α-Terpineol], the “OBP14 F.D. (%) fluorescence displacement percent” value [1, 3] is reported as 30.28% and the inhibition at 20 µM [2, 5] is reported as 33.9%.
With `CCOC(C)=O` [Ethyl acetate] the “OBP14 F.D. (%) fluorescence displacement percent” value [1, 3] was 23.29% and the inhibition at 20 µM [2, 5] was 19%.
With `CCC/C=C\C=O` [Z2-Hexenal] the “OBP14 F.D. (%) fluorescence displacement percent” value [1, 3] was 33.09% and the “OBP5 F.D. (%) fluorescence displacement percent” value [2, 4] was 39.42%.
For `CC(C)=CCCC(C)=CC=O` (mixture of isomers) [Citral], the “OBP14 F.D. (%) fluorescence displacement percent” value [1, 3] was 32.25% and the inhibition at 20 µM [2, 5] was 39%.
With `CC(C)=CCC/C(C)=C/CC/C(C)=C/CC/C=C(\C)CC/C=C(\C)CCC=C(C)C` [Squalene] the “OBP14 F.D. (%) fluorescence displacement percent” value [1, 3] was 24.81% and the inhibition at 20 µM [2, 5] was 32.3%.
In the case of `CC(C)=CCO` [3-Methyl-2-buten-1-ol], the “OBP14 F.D. (%) fluorescence displacement percent” value [1, 3] is reported as 34.58% and the inhibition at 20 µM [2, 5] is reported as 37%.
For `CCCCCCCCCOC(C)=O` [Nonyl acetate], the “OBP14 F.D. (%) fluorescence displacement percent” value [1, 3] was 22.98% and the inhibition at 20 µM [2, 5] was 16.5%.
With `CCCCCC(C)O` (stereo not shown) [2-Heptanol] the “OBP14 F.D. (%) fluorescence displacement percent” value [1, 3] was 24.86% and the inhibition at 20 µM [2, 5] was 13.9%.
In the case of `CCCCCCCCCCCC(C)=O` [2-Tridecanone], the “OBP14 F.D. (%) fluorescence displacement percent” value [1, 3] is reported as 32.61% and the inhibition at 20 µM [2, 5] is reported as 35.6%.
In the case of `CC/C=C\CCO` [Z3-Hexen-1-ol], the “OBP14 F.D. (%) fluorescence displacement percent” value [1, 3] is reported as 24.52% and the “OBP5 F.D. (%) fluorescence displacement percent” value [2, 4] is reported as 28.57%.
With `CCCCCC(=O)OCC` [Ethyl hexanoate] the “OBP14 F.D. (%) fluorescence displacement percent” value [1, 3] was 29.43% and the inhibition at 20 µM [2, 5] was 24.2%.
For `CC(=O)CCC=C(C)C` [6-Methyl-5-hepten-2-one], the “OBP14 F.D. (%) fluorescence displacement percent” value [1, 3] was 34.39% and the inhibition at 20 µM [2, 5] was 40.3%.
`CCCCCCC` [Heptane] was tested, and the “OBP14 F.D. (%) fluorescence displacement percent” value [1, 3] was 22.91% and the inhibition at 20 µM [2, 5] was 31.4%.
With `O=Cc1ccccc1` [Benzaldehyde] the “OBP14 F.D. (%) fluorescence displacement percent” value [1, 3] was 38.35% and the inhibition at 20 µM [2, 5] was 36.8%.
`CC(=O)c1ccccc1` [Acetophenone] was tested, and the “OBP14 F.D. (%) fluorescence displacement percent” value [1, 3] was 36.22% and the inhibition at 20 µM [2, 5] was 38.8%.
With `CC1=CC=C(C(C)C)CC1` [α-Terpinene] the “OBP14 F.D. (%) fluorescence displacement percent” value [1, 3] was 27.93% and the inhibition at 20 µM [2, 5] was 35.1%.
`CCCCOC(C)=O` [Butyl acetate] was tested, and the “OBP14 F.D. (%) fluorescence displacement percent” value ([1]; pH 7.4) was 0.16% and the inhibition at 20 µM [2, 5] was 31.6%.
For `CCCCC=CCCO` [3-Octenol], the “OBP14 F.D. (%) fluorescence displacement percent” value [1, 3] was 31.31% and the inhibition at 20 µM [2, 5] was 25.1%.
For `CCCCCCCCCCCC` [Dodecane], the “OBP14 F.D. (%) fluorescence displacement percent” value [1, 3] was 17.71% and the inhibition at 20 µM [2, 5] was 31.9%.
With `N#Cc1nn(-c2c(Cl)cc(C(F)(F)F)cc2Cl)c(N)c1[S+]([O-])C(F)(F)F` (stereo not shown) [Fipronil] the “OBP14 F.D. (%) fluorescence displacement percent” value [1, 3] was 29.70% and the inhibition at 20 µM [2, 5] was 23.7%.
With `CCCCCCCO` [1-Heptanol] the “OBP14 F.D. (%) fluorescence displacement percent” value [1, 3] was 39.10% and the inhibition at 20 µM [2, 5] was 39.3%.
`CCCCCCOC(C)=O` [Hexyl acetate] was tested, and the “OBP14 F.D. (%) fluorescence displacement percent” value [1, 3] was 29.22% and the inhibition at 20 µM [2, 5] was 23.7%.
For `CCCCCOC(C)=O` [Amyl acetate], the “OBP14 F.D. (%) fluorescence displacement percent” value [1, 3] was 25.00% and the “OBP5 F.D. (%) fluorescence displacement percent” value [2, 4] was 26.33%.
`CCCOC(C)=O` [Propyl acetate] was tested, and the “OBP14 F.D. (%) fluorescence displacement percent” value [1, 3] was 25.46% and the inhibition at 20 µM [2, 5] was 31.4%.
With Farnesene the “OBP14 F.D. (%) fluorescence displacement percent” value [1, 3] was 17.77% and the “OBP5 F.D. (%) fluorescence displacement percent” value [2, 4] was 40.68%.
For `CCCCCCCOC(C)=O` [Heptyl acetate], the “OBP14 F.D. (%) fluorescence displacement percent” value [1, 3] was 33.70% and the inhibition at 20 µM [2, 5] was 41%.
In the case of `CC1=CC[C@H](C(C)C)C=C1` [α-Phellandrene], the “OBP14 F.D. (%) fluorescence displacement percent” value [1, 3] is reported as 36.07% and the inhibition at 20 µM [2, 5] is reported as 37.4%.
`CC/C=C\CCOC(C)=O` [Z3-Hexenyl acetate] was tested, and the “OBP14 F.D. (%) fluorescence displacement percent” value [1, 3] was 31.25% and the “OBP5 F.D. (%) fluorescence displacement percent” value [2, 4] was 27.72%.
`C=C(C)[C@H]1CC=C(C)CC1` [Limonene] was tested, and the “OBP14 F.D. (%) fluorescence displacement percent” value [1, 3] was 30.81% and the “OBP5 F.D. (%) fluorescence displacement percent” value [2, 4] was 38.31%.
